{
  "source": "patent US12351559B2",
  "about": "(Biohaven Therapeutics Ltd., priority 2014, dated 2025)",
  "data": [
    {"target": "T1, Kv7.2/7.3 (Homo sapiens, UniProt O43525+O43526)", "T1 construct": "host or cells: HEK cells, tetracycline-inducible expression", "assay": "Kv7.2/7.3 activation assay, QPatch planar patch-clamp, single concentration screen", "assay_type": "cell-based", "set-up": "key: <1.2-fold increase over baseline (−); +/−: as a range from <1.2-fold increase over baseline (−) up to >6-fold increase over baseline (+++); as a range from <1.2-fold increase over baseline (−) up to >6-fold increase over baseline (+++); as a range from <1.2-fold increase over baseline (−) up to >6-fold increase over baseline (+++); >6-fold increase over baseline (+++)", "conditions": "Kv7.2/Kv7.3 co-expressing HEK cells, compound 3 μM, steady-state current at end of 2 s pulse to −30 mV", "values": [
      {"smiles": "Cc1cc2nc(NC(=O)C[C@](C)(O)c3ccc(F)cc3)n(C3CCC3)c2cc1C#N", "note": "[Example 125, (S)-N-(6-cyano-1-cyclobutyl-5-methyl-1H-benzo[d]imidazol-2-yl)-3-(4-fluorophenyl)-3-hydroxybutanamide]", "Kv7.2/7.3 Activity: increase in current over baseline": "+/−"},
      {"smiles": "CC(C)(O)c1ccc2nc(NC(=O)C3CC4(CCC4)C3)n(C3CCC3)c2c1", "note": "[Example 87, N-(1-cyclobutyl-6-(2-hydroxypropan-2-yl)-1H-benzo[d]imidazol-2-yl)spiro[3.3]heptane-2-carboxamide]", "Kv7.2/7.3 Activity: increase in current over baseline": "++"},
      {"smiles": "C[C@H](C(=O)Nc1nc2ccc(C#N)cc2n1C1CCC1)C(C)(C)C", "note": "[Example 23, (S)-N-(6-cyano-1-cyclobutyl-1H-benzo[d]imidazol-2-yl)-2,3,3-trimethylbutanamide]", "Kv7.2/7.3 Activity: increase in current over baseline": "++"},
      {"smiles": "COc1ccc2nc(NC(=O)[C@@H](C)C(C)C)n(C(C)C)c2c1", "note": "[Example 4, (S)-N-(1-isopropyl-6-methoxy-1H-benzo[d]imidazol-2-yl)-2,3-dimethylbutanamide]", "Kv7.2/7.3 Activity: increase in current over baseline": "+/−"},
      {"smiles": "CCOC(=O)Cc1ccc2nc(NC(=O)[C@H]3CC3(C)C)n(C3CCC3)c2c1F", "note": "[Example 111, ethyl (S)-2-(1-cyclobutyl-2-(2,2-dimethylcyclopropane-1-carboxamido)-7-fluoro-1H-benzo[d]imidazol-6-yl)acetate]", "Kv7.2/7.3 Activity: increase in current over baseline": "+"},
      {"smiles": "CC1(n2c(NC(=O)C[C@](C)(O)c3ccc(F)cc3)nc3ccc(C#N)cc32)CCC1", "note": "[Example 138, (S)-N-(6-cyano-1-(1-methylcyclobutyl)-1H-benzo[d]imidazol-2-yl)-3-(4-fluorophenyl)-3-hydroxybutanamide]", "Kv7.2/7.3 Activity: increase in current over baseline": "+"},
      {"smiles": "CC(C)(C)CC(=O)Nc1nc2ccc(Br)cc2n1C1CCC1", "note": "[Example 63, N-(6-bromo-1-cyclobutyl-1H-benzo[d]imidazol-2-yl)-3,3-dimethylbutanamide]", "Kv7.2/7.3 Activity: increase in current over baseline": "++"},
      {"smiles": "CCC(O)(CC)c1ccc2nc(NC(=O)C3CC34CC4)n(C3CCC3)c2c1", "note": "(stereo not shown) [Example 106, N-(1-cyclobutyl-6-(3-hydroxypentan-3-yl)-1H-benzo[d]imidazol-2-yl)spiro[2.2]pentane-1-carboxamide]", "Kv7.2/7.3 Activity: increase in current over baseline": "+/−"},
      {"smiles": "CCOC(=O)c1ccc2nc(NC(=O)CC(C)(C)C)n(C3CCC3)c2c1", "note": "[Example 50, ethyl 1-cyclobutyl-2-(3,3-dimethylbutanamido)-1H-benzo[d]imidazole-6-carboxylate]", "Kv7.2/7.3 Activity: increase in current over baseline": "+/−"},
      {"smiles": "Cc1cc(-n2c(NC(=O)[C@@H](C)C(C)C)nc3ccc(C(F)(F)F)cc32)on1", "note": "[Example 47, (S)-2,3-dimethyl-N-(1-(3-methylisoxazol-5-yl)-6-(trifluoromethyl)-1H-benzo[d]imidazol-2-yl)butanamide]", "Kv7.2/7.3 Activity: increase in current over baseline": "+"},
      {"smiles": "C[C@@](O)(CC(=O)Nc1nc2ccc(Cl)cc2n1-c1ccc(F)cc1)c1ccccc1", "note": "[Example 108, (R)-N-(6-chloro-1-(4-fluorophenyl)-1H-benzo[d]imidazol-2-yl)-3-hydroxy-3-phenylbutanamide]", "Kv7.2/7.3 Activity: increase in current over baseline": "+/−"},
      {"smiles": "C[C@](O)(CC(=O)Nc1nc2ccc(C#N)cc2n1-c1ccc(F)cn1)c1ccccc1", "note": "[Example 79, (S)-N-(6-cyano-1-(5-fluoropyridin-2-yl)-1H-benzo[d]imidazol-2-yl)-3-hydroxy-3-phenylbutanamide]", "Kv7.2/7.3 Activity: increase in current over baseline": "+"},
      {"smiles": "O=C(CC1(O)CCC1)Nc1nc2ccc(Cl)cc2n1C1CCC1", "note": "[Example 62, N-(6-chloro-1-cyclobutyl-1H-benzo[d]imidazol-2-yl)-2-(1-hydroxycyclobutyl)acetamide]", "Kv7.2/7.3 Activity: increase in current over baseline": "+"},
      {"smiles": "CC(C)(O)[C@H]1C[C@@H]1C(=O)Nc1nc2ccc(C(F)(F)F)cc2n1C1CCC1", "note": "[Example 41, (1S,2S)-N-(1-cyclobutyl-6-(trifluoromethyl)-1H-benzo[d]imidazol-2-yl)-2-(2-hydroxypropan-2-yl)cyclopropane-1-carboxamide]", "Kv7.2/7.3 Activity: increase in current over baseline": "+/−"},
      {"smiles": "CC(C)(C)CC(=O)Nc1nc2ccccc2n1C1CCC1", "note": "[Example 1, N-(1-cyclobutyl-1H-benzo[d]imidazol-2-yl)-3,3-dimethylbutanamide]", "Kv7.2/7.3 Activity: increase in current over baseline": "+"},
      {"smiles": "CN(C)C(=O)Cc1ccc2nc(NC(=O)CC(C)(C)C)n(C3CCC3)c2c1F", "note": "[Example 118, N-(1-cyclobutyl-6-(2-(dimethylamino)-2-oxoethyl)-7-fluoro-1H-benzo[d]imidazol-2-yl)-3,3-dimethylbutanamide]", "Kv7.2/7.3 Activity: increase in current over baseline": "+"},
      {"smiles": "CC(O)(CC(=O)Nc1nc2ccc(C#N)cc2n1C1CCC1)C1CC1", "note": "(stereo not shown) [Example 28, N-(6-cyano-1-cyclobutyl-1H-benzo[d]imidazol-2-yl)-3-cyclopropyl-3-hydroxybutanamide]", "Kv7.2/7.3 Activity: increase in current over baseline": "+/−"},
      {"smiles": "CC1(n2c(NC(=O)C[C@](C)(O)c3ccccc3)nc3ccc(C#N)cc32)CCC1", "note": "[Example 95, (S)-N-(6-cyano-1-(1-methylcyclobutyl)-1H-benzo[d]imidazol-2-yl)-3-hydroxy-3-phenylbutanamide]", "Kv7.2/7.3 Activity: increase in current over baseline": "++"},
      {"smiles": "CC(C)c1ccc2nc(NC(=O)[C@@H](C)C(C)C)n(C3CCC3)c2c1", "note": "[Example 65, (S)—N-(1-cyclobutyl-6-isopropyl-1H-benzo[d]imidazol-2-yl)-2,3-dimethylbutanamide]", "Kv7.2/7.3 Activity: increase in current over baseline": "+"},
      {"smiles": "CC(C)(O)c1ccc2nc(NC(=O)C3CC34CC4)n(C3CCC3)c2c1", "note": "(stereo not shown) [Example 105, N-(1-cyclobutyl-6-(2-hydroxypropan-2-yl)-1H-benzo[d]imidazol-2-yl)spiro[2.2]pentane-1-carboxamide]", "Kv7.2/7.3 Activity: increase in current over baseline": "+"},
      {"smiles": "CC(O)(CC(=O)Nc1nc2ccc(C#N)cc2n1C1CCC1)C1CCCC1", "note": "(stereo not shown) [Example 80, N-(6-cyano-1-cyclobutyl-1H-benzo[d]imidazol-2-yl)-3-cyclopentyl-3-hydroxybutanamide]", "Kv7.2/7.3 Activity: increase in current over baseline": "+"},
      {"smiles": "CC(C)(O)CC(=O)Nc1nc2ccc(C(F)(F)F)cc2n1-c1cc(F)cc(F)c1", "note": "[Example 136, N-(1-(3,5-difluorophenyl)-6-(trifluoromethyl)-1H-benzo[d]imidazol-2-yl)-3-hydroxy-3-methylbutanamide]", "Kv7.2/7.3 Activity: increase in current over baseline": "+"},
      {"smiles": "Cc1cc(-n2c(NC(=O)[C@@H](C)C(C)(C)C)nc3ccc(C#N)cc32)on1", "note": "[Example 49, (S)-N-(6-cyano-1-(3-methylisoxazol-5-yl)-1H-benzo[d]imidazol-2-yl)-2,3,3-trimethylbutanamide]", "Kv7.2/7.3 Activity: increase in current over baseline": "+"},
      {"smiles": "CC(C)(O)c1ccc2nc(NC(=O)CC(O)(C(F)(F)F)C(F)(F)F)n(-c3ccc(F)cc3)c2c1", "note": "[Example 131, 4,4,4-trifluoro-N-(1-(4-fluorophenyl)-6-(2-hydroxypropan-2-yl)-1H-benzo[d]imidazol-2-yl)-3-hydroxy-3-(trifluoromethyl)butanamide]", "Kv7.2/7.3 Activity: increase in current over baseline": "+/−"},
      {"smiles": "C[C@](O)(CC(=O)Nc1nc2ccc(C#N)cc2n1C1CCC1)c1ccccc1", "note": "[Example 29, (S)-N-(6-cyano-1-cyclobutyl-1H-benzo[d]imidazol-2-yl)-3-hydroxy-3-phenylbutanamide]", "Kv7.2/7.3 Activity: increase in current over baseline": "+"},
      {"smiles": "CC(C)(O)CC(=O)Nc1nc2ccc(C(C)(C)O)cc2n1C1CCC1", "note": "[Example 85, N-(1-cyclobutyl-6-(2-hydroxypropan-2-yl)-1H-benzo[d]imidazol-2-yl)-3-hydroxy-3-methylbutanamide]", "Kv7.2/7.3 Activity: increase in current over baseline": "+/−"},
      {"smiles": "CC(O)(CC(=O)Nc1nc2ccc(C#N)cc2n1C1CCC1)C1CCC1", "note": "(stereo not shown) [Example 78, N-(6-cyano-1-cyclobutyl-1H-benzo[d]imidazol-2-yl)-3-cyclobutyl-3-hydroxybutanamide]", "Kv7.2/7.3 Activity: increase in current over baseline": "+"},
      {"smiles": "O=C(CC1(O)CCC1)Nc1nc2ccc(C(F)(F)F)cc2n1-c1ccc(OC(F)(F)F)cc1", "note": "[Example 142, 2-(1-hydroxycyclobutyl)-N-(1-(4-(trifluoromethoxy)phenyl)-6-(trifluoromethyl)-1H-benzo[d]imidazol-2-yl)acetamide]", "Kv7.2/7.3 Activity: increase in current over baseline": "++"},
      {"smiles": "C[C@](O)(CC(=O)Nc1nc2ccc(C(F)(F)F)cc2n1C1CCC1)c1ccccc1", "note": "[Example 88, (S)-N-(1-cyclobutyl-6-(trifluoromethyl)-1H-benzo[d]imidazol-2-yl)-3-hydroxy-3-phenylbutanamide]", "Kv7.2/7.3 Activity: increase in current over baseline": "+"},
      {"smiles": "CC1(n2c(NC(=O)C[C@](C)(O)c3ccc(Cl)cc3)nc3ccc(C#N)cc32)CCC1", "note": "[Example 140, (S)-3-(4-chlorophenyl)-N-(6-cyano-1-(1-methylcyclobutyl)-1H-benzo[d]imidazol-2-yl)-3-hydroxybutanamide]", "Kv7.2/7.3 Activity: increase in current over baseline": "+/−"},
      {"smiles": "C[C@H](C(=O)Nc1nc2ccc(C(C)(C)O)cc2n1C1CCC1)C(C)(C)C", "note": "[Example 86, (S)-N-(1-cyclobutyl-6-(2-hydroxypropan-2-yl)-1H-benzo[d]imidazol-2-yl)-2,3,3-trimethylbutanamide]", "Kv7.2/7.3 Activity: increase in current over baseline": "+++ (>6-fold increase over baseline (+++))"},
      {"smiles": "C[C@@](O)(CC(=O)Nc1nc2ccc(C#N)cc2n1-c1ccc(F)cc1)c1ccccc1", "note": "[Example 70, (R)-N-(6-cyano-1-(4-fluorophenyl)-1H-benzo[d]imidazol-2-yl)-3-hydroxy-3-phenylbutanamide]", "Kv7.2/7.3 Activity: increase in current over baseline": "+/−"},
      {"smiles": "CC(C)[C@H](C)C(=O)Nc1nc2ccc(C#N)cc2n1-c1ccc(F)cn1", "note": "[Example 73, (S)-N-(6-cyano-1-(5-fluoropyridin-2-yl)-1H-benzo[d]imidazol-2-yl)-2,3-dimethylbutanamide]", "Kv7.2/7.3 Activity: increase in current over baseline": "+/−"},
      {"smiles": "COC(C)(C)CC(=O)Nc1nc2ccc(C#N)cc2n1C1CCC1", "note": "[Example 12, N-(6-cyano-1-cyclobutyl-1H-benzo[d]imidazol-2-yl)-3-methoxy-3-methylbutanamide]", "Kv7.2/7.3 Activity: increase in current over baseline": "+/−"}
    ]}
  ]
}
